Key:
Type in all cases: cell-based
[1] = system: human dermal microvascular endothelial cell line HMEC-1; assay: Mitochondrial membrane potential (TMRM probe, confocal microscopy) in HMEC-1 cells under ischaemia/reperfusion
Description: The immortalized human dermal microvascular endothelial cell line HMEC-1 was used. […] They were analysed by confocal microscopy before the treatment, after 60 minutes of ischaemia, after 90 minutes of reperfusion and after 120 minutes of reperfusion.

[2] = system: complex I of the endothelial cell respiratory chain; assay: Production of ROS by complex I of the endothelial cell respiratory chain; conditions: endothelial cells; by inhibiting reverse electron flow
[3] = system: mitochondrial transient permeability pore (TPP); assay: Opening of the mitochondrial transient permeability pore (TPP); conditions: during ischaemia and/or reperfusion events

CC1N=C(N)NC(N(C)C)=N1 (stereo not shown) [E 008]
mitochondrial membrane potential after reperfusion ([1]; HMEC-1, 30 min pre-incubation, 60 min ischaemia, reperfusion 90 and 120 min, TMRM 30 nM): protected against the damage induced by the reperfusion
loss of potential of the mitochondrial membrane ([1]; during ischaemia and/or reperfusion events): prevent the loss of potential of the mitochondrial membrane
production of ROS by complex I of the respiratory chain [2]: reduce the production of ROS
opening of the mitochondrial transient permeability pore (TPP) [3]: reduce the opening of the mitochondrial transient permeability pore (TPP)

From patent US20120115872A1, “COMBINATION OF A SODIUM-PROTON EXCHANGER INHIBITOR AND OF A DIHYDRO-1,3,5-TRIAZINE AMINE DERIVATIVE” (Merck Patent GMBH, priority 2009, published 2012)
